We go through 27 compounds from ChEMBL document CHEMBL1201862, “PubChem BioAssay data set” (2004).

In experiment [1] the target is T1, Fatty acid synthase (Homo sapiens, UniProt P49327). Description: FAS thioesterase domain inhibitors, dose response, biochemical, endpoint fluorescence intensity, uHTS hits (AID 624327).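 Also: fluorescence from hydrolysis of an O-methyl fluorescein acyl ester substrate by the enzyme.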 Type of experiment: functional.
The target in experiment [2] is T1, Fatty acid synthase. In words: FAS thioesterase domain inhibitors, dose response, biochemical, kinetic fluorescence intensity (AID 624326).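 Also: rate of fluorescence rise from hydrolysis of a fluorogenic O-methyl fluorescein ester substrate.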 In kind it is functional.
In experiment [3] the target is T2, Short transient receptor potential channel 4 (Mus musculus, UniProt Q9QUQ5).
T2 sequence (Q9QUQ5 whole entry): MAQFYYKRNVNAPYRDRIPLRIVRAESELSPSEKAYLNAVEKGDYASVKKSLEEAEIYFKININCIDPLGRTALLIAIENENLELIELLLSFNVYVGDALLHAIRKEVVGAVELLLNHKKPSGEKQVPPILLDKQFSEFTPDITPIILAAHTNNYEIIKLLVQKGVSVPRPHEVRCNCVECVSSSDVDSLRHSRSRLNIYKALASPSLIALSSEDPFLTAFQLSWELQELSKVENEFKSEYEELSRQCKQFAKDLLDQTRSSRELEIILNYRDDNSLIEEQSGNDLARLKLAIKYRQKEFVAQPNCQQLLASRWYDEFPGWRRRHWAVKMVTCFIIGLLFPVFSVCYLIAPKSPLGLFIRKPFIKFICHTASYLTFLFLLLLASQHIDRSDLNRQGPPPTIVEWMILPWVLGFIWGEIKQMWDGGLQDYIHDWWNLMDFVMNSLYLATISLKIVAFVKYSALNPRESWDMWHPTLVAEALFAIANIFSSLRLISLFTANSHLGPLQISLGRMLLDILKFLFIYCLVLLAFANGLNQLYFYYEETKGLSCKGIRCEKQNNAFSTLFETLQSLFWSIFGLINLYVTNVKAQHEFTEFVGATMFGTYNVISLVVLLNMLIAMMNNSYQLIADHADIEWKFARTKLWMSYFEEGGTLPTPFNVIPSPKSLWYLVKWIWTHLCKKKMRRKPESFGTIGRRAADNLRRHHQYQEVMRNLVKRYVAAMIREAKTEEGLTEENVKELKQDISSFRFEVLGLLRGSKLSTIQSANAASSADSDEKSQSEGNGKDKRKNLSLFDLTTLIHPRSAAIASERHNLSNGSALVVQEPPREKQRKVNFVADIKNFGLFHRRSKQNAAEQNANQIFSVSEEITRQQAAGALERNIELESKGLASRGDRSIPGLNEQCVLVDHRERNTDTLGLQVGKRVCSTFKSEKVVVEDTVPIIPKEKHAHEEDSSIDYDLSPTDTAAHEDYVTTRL
Description: mouse TRPC4 channel inhibitors, dose response, cell-based, HEK293 TRPC4/mu-opioid, Fluo-4 calcium (AID 434942).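 Also: potency of inhibitors blocking the TRPC4 calcium response.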 Type of experiment: functional.

The target of experiment [4] is T3, Polyadenylate-binding protein 1 (Homo sapiens, UniProt P11940). In words: PABP1 MLLE–PAM2 binding inhibitor potency, dose response, biochemical, fluorescence polarization, FITC-PAM2 peptide (AID 602259). Type of experiment: functional. The following applies: read-out: IC50_Mean.
T3 sequence (P11940 whole entry): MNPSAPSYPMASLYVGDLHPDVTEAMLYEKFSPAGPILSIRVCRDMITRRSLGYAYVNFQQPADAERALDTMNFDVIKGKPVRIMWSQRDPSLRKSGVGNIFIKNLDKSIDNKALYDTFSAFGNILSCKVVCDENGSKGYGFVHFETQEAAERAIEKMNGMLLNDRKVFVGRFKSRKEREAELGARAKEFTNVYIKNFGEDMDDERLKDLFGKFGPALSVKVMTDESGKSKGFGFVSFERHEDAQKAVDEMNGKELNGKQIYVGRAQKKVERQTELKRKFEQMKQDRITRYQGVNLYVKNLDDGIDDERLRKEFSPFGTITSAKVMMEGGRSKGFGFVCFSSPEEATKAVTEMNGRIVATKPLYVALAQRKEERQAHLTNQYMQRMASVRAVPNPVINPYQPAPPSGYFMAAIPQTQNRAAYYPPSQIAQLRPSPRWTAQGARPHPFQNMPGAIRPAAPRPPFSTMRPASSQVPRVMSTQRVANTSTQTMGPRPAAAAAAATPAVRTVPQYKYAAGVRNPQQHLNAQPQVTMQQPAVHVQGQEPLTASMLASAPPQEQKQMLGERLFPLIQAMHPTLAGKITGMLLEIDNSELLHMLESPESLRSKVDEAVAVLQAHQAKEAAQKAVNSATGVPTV
The target of experiment [5] is T3, Polyadenylate-binding protein 1. In words: PABP1 MLLE–PAM2 interaction inhibitors, dose response, miRNA deadenylation inhibitor project, biochemical, fluorescence polarization, Cy5-PAM2 peptide, secondary (AID 602260). In kind it is functional. Conditions: read-out: IC50_Mean.
The target in experiment [6] is Alkaline phosphatase, placental type (Homo sapiens, UniProt P05187). Description: PLAP enzyme inhibitors, confirmation, biochemical, luminescence (AID 1512). In kind it is functional.
Sequence of Alkaline phosphatase, placental type (P05187 whole entry): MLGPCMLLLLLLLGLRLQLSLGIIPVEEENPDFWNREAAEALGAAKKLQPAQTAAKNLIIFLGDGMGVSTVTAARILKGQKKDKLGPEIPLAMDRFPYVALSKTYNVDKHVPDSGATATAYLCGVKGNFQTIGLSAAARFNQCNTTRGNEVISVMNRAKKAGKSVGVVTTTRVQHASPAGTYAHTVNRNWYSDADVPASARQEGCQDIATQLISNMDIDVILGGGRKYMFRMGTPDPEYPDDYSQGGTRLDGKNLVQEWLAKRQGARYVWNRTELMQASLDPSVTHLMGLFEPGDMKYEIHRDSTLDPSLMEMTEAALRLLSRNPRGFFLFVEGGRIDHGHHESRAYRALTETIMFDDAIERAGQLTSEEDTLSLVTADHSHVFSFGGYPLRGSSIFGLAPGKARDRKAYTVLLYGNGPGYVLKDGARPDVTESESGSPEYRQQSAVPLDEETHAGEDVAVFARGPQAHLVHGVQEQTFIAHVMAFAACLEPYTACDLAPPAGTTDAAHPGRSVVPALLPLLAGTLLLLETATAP
In experiment [7] the target is Heat shock protein HSP 90-alpha (Homo sapiens, UniProt P07900). In kind it is functional, organism-based.
The next experiment has as its target Genome polyprotein (dengue virus type 2, UniProt P29990). In words: Dengue-2 NS5 methyltransferase inhibitors, primary screen, biochemical, confirmation dose response (AID 588689). Type of experiment: functional.
Another experiment concerns the target Large T antigen (Simian virus 40, UniProt P03070). In kind it is functional, Betapolyomavirus macacae.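 Also: Confirmatory-stage PubChem screen for compounds that inhibit SV40 T antigen.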
Experiment [8] can be described thus: Luminescence Cell-Based Dose Confirmation HTS to Identify Inhibitors of Platelet Dense Granule Release. [Related pubchem assays: 1663 (Primary HTS), 1678 (Summary of Project)]. In kind it is functional.
Experiment [9] deals with Luciferin 4-monooxygenase (Photinus pyralis, UniProt P08659). In words: firefly luciferase enzyme inhibitors, dose response, biochemical, luminescence (AID 1891).
For experiment [10], the target named is T4, High affinity choline transporter 1 (Homo sapiens, UniProt Q9GZV3).
T4 sequence (Q9GZV3 whole entry): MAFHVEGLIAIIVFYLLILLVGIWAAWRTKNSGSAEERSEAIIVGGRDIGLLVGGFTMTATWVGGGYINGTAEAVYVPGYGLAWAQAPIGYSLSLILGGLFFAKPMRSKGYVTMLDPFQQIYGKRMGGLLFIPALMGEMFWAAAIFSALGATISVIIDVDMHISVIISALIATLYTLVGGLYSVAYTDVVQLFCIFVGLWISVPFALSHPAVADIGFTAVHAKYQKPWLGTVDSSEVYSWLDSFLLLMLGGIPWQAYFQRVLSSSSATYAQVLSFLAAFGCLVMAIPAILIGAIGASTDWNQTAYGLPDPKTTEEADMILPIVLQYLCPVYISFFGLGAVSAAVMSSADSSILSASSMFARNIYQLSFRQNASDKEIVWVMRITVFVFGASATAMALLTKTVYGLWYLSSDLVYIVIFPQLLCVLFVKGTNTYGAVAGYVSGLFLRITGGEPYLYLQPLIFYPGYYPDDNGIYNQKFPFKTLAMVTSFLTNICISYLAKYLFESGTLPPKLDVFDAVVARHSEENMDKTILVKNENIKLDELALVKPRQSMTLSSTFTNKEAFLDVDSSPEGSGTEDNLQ
Description: CHT inhibitors, dose response, cell-based, 5-point CRC, membrane potential dye (AID 504840). In kind it is functional.

Experiment [11] has as its target T5, RNA-binding protein pos-1 (Caenorhabditis elegans, UniProt G5EF15).
T5 sequence (G5EF15 whole entry): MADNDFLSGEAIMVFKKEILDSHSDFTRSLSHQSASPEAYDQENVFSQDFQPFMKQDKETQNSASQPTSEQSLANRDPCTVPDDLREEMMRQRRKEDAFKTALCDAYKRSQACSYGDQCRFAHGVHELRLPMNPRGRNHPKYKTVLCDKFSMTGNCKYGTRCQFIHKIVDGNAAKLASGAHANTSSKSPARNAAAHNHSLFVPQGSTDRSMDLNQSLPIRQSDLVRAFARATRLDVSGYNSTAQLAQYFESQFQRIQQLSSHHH
In words: inhibitors of POS-1/mex-3 RNA binding, dose response, biochemical, fluorescence polarization (AID 1964).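 Also: purified POS-1 fused to maltose binding protein made in E. coli; potency of compounds blocking POS-1 binding to fluorescent RNA.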

Experiment [12] concerns the target T6, Zinc finger protein mex-5 (Caenorhabditis elegans, UniProt Q9XUB2).
T6 sequence (Q9XUB2 whole entry): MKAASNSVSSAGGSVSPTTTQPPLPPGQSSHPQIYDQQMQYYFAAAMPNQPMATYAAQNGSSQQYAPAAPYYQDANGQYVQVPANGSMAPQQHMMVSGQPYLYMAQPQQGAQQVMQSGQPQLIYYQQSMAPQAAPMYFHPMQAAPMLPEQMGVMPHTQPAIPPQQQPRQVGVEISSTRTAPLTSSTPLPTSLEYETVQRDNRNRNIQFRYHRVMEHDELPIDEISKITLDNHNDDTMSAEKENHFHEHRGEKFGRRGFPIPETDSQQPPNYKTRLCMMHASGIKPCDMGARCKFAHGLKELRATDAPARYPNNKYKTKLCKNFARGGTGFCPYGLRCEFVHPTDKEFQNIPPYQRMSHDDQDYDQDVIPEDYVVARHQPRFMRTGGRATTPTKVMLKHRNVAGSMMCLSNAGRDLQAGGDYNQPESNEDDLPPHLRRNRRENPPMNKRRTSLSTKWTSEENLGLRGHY
In words: MEX-5/TCR-2 RNA interaction inhibitors, dose response, biochemical, C. elegans, fluorescence polarization (AID 1960).

Experiment [13] in a line: Luminescence Cell-Based Dose Retest to Confirm Inhibitors of Cancer Stem Cells. [Related pubchem assays (depositor defined):AID2717, AID2721]. The following applies: Homo sapiens. Type of experiment: functional.

Structures are written as SMILES. The source made the active and inactive calls. A value given as a limit tells only on which side of the number the result lay.

T1 sequence (P49327 whole entry, the tested form may be a part): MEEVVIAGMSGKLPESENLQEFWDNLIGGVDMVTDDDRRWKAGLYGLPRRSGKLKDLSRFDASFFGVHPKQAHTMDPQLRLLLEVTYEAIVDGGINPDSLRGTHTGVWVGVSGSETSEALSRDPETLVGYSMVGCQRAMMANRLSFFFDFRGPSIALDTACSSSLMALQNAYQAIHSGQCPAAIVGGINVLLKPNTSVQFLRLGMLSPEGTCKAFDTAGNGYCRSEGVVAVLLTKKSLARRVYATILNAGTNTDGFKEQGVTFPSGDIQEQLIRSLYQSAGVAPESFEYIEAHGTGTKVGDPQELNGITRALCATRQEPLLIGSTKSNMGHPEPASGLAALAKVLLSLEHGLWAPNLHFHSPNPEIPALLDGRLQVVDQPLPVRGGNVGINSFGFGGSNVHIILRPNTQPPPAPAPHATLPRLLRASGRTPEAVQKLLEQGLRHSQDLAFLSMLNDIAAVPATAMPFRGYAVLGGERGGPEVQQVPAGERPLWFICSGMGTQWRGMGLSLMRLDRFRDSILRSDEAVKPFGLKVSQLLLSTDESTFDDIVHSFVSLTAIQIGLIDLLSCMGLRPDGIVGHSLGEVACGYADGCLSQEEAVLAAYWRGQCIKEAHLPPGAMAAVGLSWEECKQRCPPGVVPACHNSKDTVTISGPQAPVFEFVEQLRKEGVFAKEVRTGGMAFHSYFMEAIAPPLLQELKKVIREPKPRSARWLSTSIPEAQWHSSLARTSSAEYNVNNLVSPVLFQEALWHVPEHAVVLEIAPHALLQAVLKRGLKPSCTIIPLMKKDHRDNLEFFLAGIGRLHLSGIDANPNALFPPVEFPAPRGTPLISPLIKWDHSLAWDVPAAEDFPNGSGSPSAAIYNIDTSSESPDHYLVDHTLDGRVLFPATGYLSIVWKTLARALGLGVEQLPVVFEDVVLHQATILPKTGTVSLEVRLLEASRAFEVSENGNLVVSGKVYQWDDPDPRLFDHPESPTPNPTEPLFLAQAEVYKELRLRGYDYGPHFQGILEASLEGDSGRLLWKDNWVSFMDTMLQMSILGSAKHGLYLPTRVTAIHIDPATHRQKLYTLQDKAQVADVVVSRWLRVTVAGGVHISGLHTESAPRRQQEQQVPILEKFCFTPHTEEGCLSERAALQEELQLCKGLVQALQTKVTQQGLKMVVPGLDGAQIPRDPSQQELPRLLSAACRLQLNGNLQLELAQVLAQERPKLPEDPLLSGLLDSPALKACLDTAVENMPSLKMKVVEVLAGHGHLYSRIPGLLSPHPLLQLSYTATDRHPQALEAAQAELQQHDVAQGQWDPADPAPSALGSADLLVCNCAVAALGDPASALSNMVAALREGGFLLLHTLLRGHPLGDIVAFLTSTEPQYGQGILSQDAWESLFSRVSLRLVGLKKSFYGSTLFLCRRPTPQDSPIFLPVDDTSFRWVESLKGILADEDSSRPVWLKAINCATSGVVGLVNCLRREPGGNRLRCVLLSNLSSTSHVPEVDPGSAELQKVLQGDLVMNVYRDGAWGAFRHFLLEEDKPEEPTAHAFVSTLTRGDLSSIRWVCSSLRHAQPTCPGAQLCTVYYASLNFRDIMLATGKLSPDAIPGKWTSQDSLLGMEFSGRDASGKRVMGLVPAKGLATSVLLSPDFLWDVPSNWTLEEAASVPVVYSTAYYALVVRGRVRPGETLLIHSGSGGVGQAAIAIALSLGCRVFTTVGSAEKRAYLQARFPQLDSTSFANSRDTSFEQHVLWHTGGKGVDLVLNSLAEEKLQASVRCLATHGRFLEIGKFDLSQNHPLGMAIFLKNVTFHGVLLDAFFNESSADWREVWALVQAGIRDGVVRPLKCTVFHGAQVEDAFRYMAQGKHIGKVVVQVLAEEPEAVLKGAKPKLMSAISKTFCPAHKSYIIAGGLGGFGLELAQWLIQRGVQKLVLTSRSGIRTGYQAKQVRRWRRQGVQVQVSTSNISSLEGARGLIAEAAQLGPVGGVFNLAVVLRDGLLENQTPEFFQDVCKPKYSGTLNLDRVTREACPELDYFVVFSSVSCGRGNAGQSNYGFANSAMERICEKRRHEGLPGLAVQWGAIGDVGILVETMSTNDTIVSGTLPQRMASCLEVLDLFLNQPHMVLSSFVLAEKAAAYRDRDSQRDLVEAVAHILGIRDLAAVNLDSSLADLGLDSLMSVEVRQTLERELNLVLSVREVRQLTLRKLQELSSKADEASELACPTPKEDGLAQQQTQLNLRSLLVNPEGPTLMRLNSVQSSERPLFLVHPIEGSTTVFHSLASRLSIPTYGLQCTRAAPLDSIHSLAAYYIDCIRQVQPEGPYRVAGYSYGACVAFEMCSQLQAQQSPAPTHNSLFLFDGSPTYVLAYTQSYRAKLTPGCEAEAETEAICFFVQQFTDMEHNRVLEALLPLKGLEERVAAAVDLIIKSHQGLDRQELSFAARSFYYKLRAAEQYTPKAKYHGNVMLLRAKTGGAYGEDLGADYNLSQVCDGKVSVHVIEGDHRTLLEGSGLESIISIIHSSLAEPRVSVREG
Sequence of Genome polyprotein (P29990 2492-3391 limits assumed): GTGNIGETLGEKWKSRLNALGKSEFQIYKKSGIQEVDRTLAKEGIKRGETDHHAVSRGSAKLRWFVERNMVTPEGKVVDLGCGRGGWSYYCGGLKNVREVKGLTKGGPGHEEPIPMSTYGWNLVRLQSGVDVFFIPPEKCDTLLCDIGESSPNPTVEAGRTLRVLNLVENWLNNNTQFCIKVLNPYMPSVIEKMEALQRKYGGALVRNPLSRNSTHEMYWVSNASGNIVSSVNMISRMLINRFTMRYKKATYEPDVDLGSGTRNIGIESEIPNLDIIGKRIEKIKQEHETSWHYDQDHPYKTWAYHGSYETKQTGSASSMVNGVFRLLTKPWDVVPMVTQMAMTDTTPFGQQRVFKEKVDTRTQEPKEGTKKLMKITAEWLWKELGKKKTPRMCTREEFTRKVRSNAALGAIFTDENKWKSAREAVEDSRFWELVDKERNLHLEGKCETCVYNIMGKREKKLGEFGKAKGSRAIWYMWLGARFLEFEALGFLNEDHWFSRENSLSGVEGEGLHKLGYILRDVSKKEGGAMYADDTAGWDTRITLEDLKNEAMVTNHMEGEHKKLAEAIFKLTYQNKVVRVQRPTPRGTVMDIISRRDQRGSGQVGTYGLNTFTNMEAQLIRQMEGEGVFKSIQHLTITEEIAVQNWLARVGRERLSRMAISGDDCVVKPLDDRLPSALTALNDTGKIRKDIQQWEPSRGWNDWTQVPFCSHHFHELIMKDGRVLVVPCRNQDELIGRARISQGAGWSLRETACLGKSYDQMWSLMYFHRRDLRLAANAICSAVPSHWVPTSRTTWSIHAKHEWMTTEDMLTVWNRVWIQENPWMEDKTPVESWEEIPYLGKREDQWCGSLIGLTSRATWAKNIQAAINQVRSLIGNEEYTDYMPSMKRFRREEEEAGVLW

`CC(C)c1ccccc1NC(=O)COC(=O)c1cc([N+](=O)[O-])ccc1N1CCOCC1`: the IC50 on Fatty acid synthase [1] is 2.95 µM (active); on Fatty acid synthase [2], 2.46 µM (active).

As for `OCC1(Cc2ccccc2)CCN(Cc2ccc(C(F)(F)F)cc2)CC1`, the EC50 in experiment [3] is 2.11 µM (active).

For the compound `COC(=O)c1sc(=S)sc1C(=O)OC`, the IC50 in experiment [4] and in experiment [5] was > 66 µM (inactive) each time.

Take `Cn1nnc2c(C(N)=O)ncn2c1=O` [TEMOZOLOMIDE]: the IC50 in experiment [4] was 43.4 µM (inactive); in experiment [5], > 66 µM (inactive).

For `O=C(NC1(C(F)(F)F)Oc2cc(Cl)c(Cl)cc2O1)N1CCC2(CC1)OCCO2`, the IC50 in [6] was > 100 µM (inactive).

Regarding `CC1(C)N=C(SCC(=O)Nc2ccccc2)C(c2ccc(Cl)cc2)=N1`, the IC50 in experiment [4] and in experiment [5] was > 66 µM (inactive) throughout.

Regarding `COc1ccc2c(c1)OC[C@H]1[C@H]2N2C(=O)c3cc(C)ccc3NC(=O)[C@@]2(C)[C@H]1c1ccccc1`, the AC50 in [7] is 1.86 µM (active).

On to `COc1ccc(C(=O)COC(=O)c2cc([N+](=O)[O-])ccc2N2CCOCC2)c(OC)c1`, for which the IC50 at Fatty acid synthase [1] is 1.66 µM (active); on Fatty acid synthase [2] it was 1.63 µM (active). Also, the AC50 in [7] is 10.2 µM (active).

Consider `C#CCOc1ccc(/C=C2/C(=O)ON=C2C)cc1OCC`, for which the IC50 on Genome polyprotein was > 100 µM (active).

Consider `Cc1cc(-c2ccc(/C=N/n3cnnc3)o2)c(C)c([N+](=O)[O-])c1`, for which the IC50 is 12.5 µM (active) at Fatty acid synthase [1] and 9.46 µM (active) at Fatty acid synthase [2].

For the compound `CCC(C)N/C=C1/C(=O)NC(=O)N(c2ccccc2)C1=O` (stereo not given), the IC50 in experiment [4] and in experiment [5] was > 66 µM (inactive) each time.

As for `COc1ccccc1N1CCc2c(C)nc3c(OC)cccc3c21`, the EC50 in [3] was 4.73 µM (active).

As to `COc1ccc([N+](=O)[O-])cc1NC(=O)CC(c1ccccc1)c1ccccc1`, the IC50 at Fatty acid synthase [1] was 60.1 µM (inactive); at Fatty acid synthase [2], 32.8 µM (inactive).

As for `CCCSc1nc(O)c(C(c2ccc(OC)c(O)c2)c2c(O)nc(SCCC)n(C)c2=O)c(=O)n1C`, the IC50 on Large T antigen was > 100 µM (active); at Genome polyprotein, 42.1 µM (active).

Consider `COc1ccc(-c2nnc3n(CCc4ccccc4)c(=O)c4ccccc4n23)c(OC)c1`, for which the EC50 in experiment [8] and in experiment [9] was > 112 µM (not active) in each case. The AC50 in experiment [7] was 7.83 µM (active).

In the case of `c1ccc(COC(CN2CCCCCC2)CN2CCCCCC2)cc1`, the EC50 in experiment [3] is 6.68 µM (active).

Regarding `O=C(/C=C/c1cccc([N+](=O)[O-])c1)c1ccco1`, the AC50 in [7] was 4 µM (active).

With `Cc1cccc(-n2cc(CN3CCN(Cc4nccn4C)CC3)c(-c3cccc(F)c3)n2)c1`, the IC50 in experiment [10] is 13.5 µM (active).

Take `CCN(CC)CCCNC(=O)CCC(=O)NNc1nc2ccccc2c2nc(C)nn12`: the IC50 in [6] was > 100 µM (inactive). The EC50 was 160 µM (active) in experiment [11] and 0.93 µM (active) in experiment [12].

Regarding `CCCc1cc(=O)[nH]c(-n2nc3c(c2O)CCCC3)n1`, the IC50 in experiment [6] was > 100 µM (inactive).

Take `CC(=O)n1c2ccccc2c2c1c1ccccc1n2C`: the IC50 in [4] and in experiment [5] was > 66 µM (inactive) each time.

As for `Cc1ccc(N2C(=O)CC(SCC(=O)Nc3ccc(S(N)(=O)=O)cc3)C2=O)cc1` (stereo not given), the IC50 in [4] and in experiment [5] was > 66 µM (inactive) each time.

With `O=C(NCCN1CCCC1)c1ccc2c(c1)N(Cc1cccc(Cl)c1)C(=O)c1ccccc1S2(=O)=O`, the IC50 in experiment [10] is 11.5 µM (active). Moreover, in [13], the AC50 is > 195 µM (inactive).

Consider `Cc1c(CCOC(=O)c2ccc([N+](=O)[O-])cc2)sc[n+]1CC(=O)c1ccccc1`, for which the EC50 in experiment [3] was 5.96 µM (active).

For the compound `CC(NCCC(Cc1ccccc1)c1ccco1)c1ccccc1` (stereo not given), the EC50 in experiment [3] was 1.68 µM (active).

As for `C/C(=N\NC(=O)c1nnn(-c2nonc2N)c1-c1ccc(Cl)c(Cl)c1)c1ccncc1`, the values for the IC50 at Fatty acid synthase [1] and at Fatty acid synthase [2] were 28 µM (inactive) and 20.9 µM (inactive), respectively.

As for `Cc1ccc(OCCOc2cccc(C=C3C(=O)NC(=O)NC3=O)c2)c(C)c1`, the IC50 at Genome polyprotein was 35.5 µM (active).
